Data from patent publication US12084472B2 (Ardelyx, Inc., priority 2015, dated 2024).

These compounds were tested against T1, human TGR5 (Homo sapiens, UniProt Q8TDU6) (assay: Cell-based TGR5 assay (cAMP generation, HTRF)). Details: HEK293 cells stably transfected with human TGR5; cAMP by HTRF; 30 minutes at 37° C.; read-out: pEC50 Human TGR5 (converted).
T1 construct: expressed in transfected cells; host or cells: HEK293
T1 sequence (Q8TDU6 1-330): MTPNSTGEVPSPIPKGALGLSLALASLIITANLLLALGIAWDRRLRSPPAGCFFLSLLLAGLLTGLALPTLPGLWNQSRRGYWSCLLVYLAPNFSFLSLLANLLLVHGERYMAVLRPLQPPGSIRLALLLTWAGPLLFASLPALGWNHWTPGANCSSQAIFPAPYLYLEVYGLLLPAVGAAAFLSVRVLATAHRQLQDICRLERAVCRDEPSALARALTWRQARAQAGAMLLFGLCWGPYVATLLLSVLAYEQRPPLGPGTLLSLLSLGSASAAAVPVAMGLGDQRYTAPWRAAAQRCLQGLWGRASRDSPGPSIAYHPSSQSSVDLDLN
Method in brief: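 Read-out was HTRF detection of cAMP, converted to concentration via a standard curve and fitted (3-parameter logistic) for pEC50 and maximal response. Agonist stimulation used HEK293 cells stably transfected with human TGR5, incubated 30 min at 37° C in IBMX-containing buffer at 0.05 nM to 10 μM compound.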

**Q.** With `CC(C)N(CCCCNC(=O)NC[C@H](O)[C@@H](O)[C@H](O)[C@H](O)CO)S(=O)(=O)c1cc(COC2(c3cnccc3-c3ccccc3OC3CC3)CC2)c(Cl)cc1F` [Compound I-764, 4-chloro-5-((1-(4-(2-cyclopropoxyphenyl)pyridin-3-yl)cyclopropoxy)methyl)-2-fluoro-N-isopropyl-N-(4-(3-((2S,3R,4R,5R)-2,3,4,5,6-pentahydroxyhexyl)ureido)butyl) benzenesulfonamide] as the compound, how does the EC50 read?
**A.** < 100 nM

**Q.** Which EC50 does the source give for `COCCN(CCCC(C)c1ccc(Cl)c(CNC2(c3cnccc3-c3ccccc3OC3CC3)CC2)c1)C(=O)[C@@H](O)[C@@H](O)[C@H](O)[C@@H](O)CO` (stereo partly drawn) [Compound I-282, (2S,3S,4R,5S)-N-(4-{4-chloro-3-[({1-[4-(2-cyclopropoxyphenyl)pyridin-3-yl]cyclopropyl}amino)methyl]phenyl}pentyl)-2,3,4,5,6-pentahydroxy-N-(2-methoxyethyl)hexanamide] here?
**A.** < 100 nM

**Q.** `O=S(=O)(Nc1ccccc1)c1ccc(Cl)c(COC2(c3cnccc3-c3ccccc3OC3CC3)CC2)c1` [Compound I-771, 4-chloro-3-((1-(4-(2-cyclopropoxyphenyl)pyridin-3-yl)cyclopropoxy)methyl)-N-phenylbenzenesulfonamide] was tested. Which EC50 did it give?
**A.** < 100 nM

**Q.** Which EC50 does the source give for `CCCN(C[C@H](O)[C@@H](O)[C@H](O)[C@H](O)CO)C(=O)CCCC(C)c1ccc(C)c(CNC2(c3cnccc3-c3ccccc3OC3CC3)CC2)c1` (stereo partly drawn) [Compound I-354, 5-{3-[({1-[4-(2-cyclopropoxyphenyl)pyridin-3-yl]cyclopropyl}amino)methyl]-4-methylphenyl}-N-[(2S,3R,4R,5R)-2,3,4,5,6-pentahydroxyhexyl]-N-propylhexanamide] here?
**A.** < 100 nM

**Q.** How did the EC50 turn out when `O=C(NCCCCNS(=O)(=O)c1ccc(Cl)c(COC2(c3c[n+]([O-])ccc3-c3ccccc3OC3CC3)CC2)c1)[C@@H](O)[C@@H](O)[C@H](O)[C@@H](O)CO` [Compound I-775, 3-(1-((2-chloro-5-(N-(4-((2S,3S,4R,5S)-2,3,4,5,6-pentahydroxyhexanamido)butyl)sulfamoyl)benzyl)oxy)cyclopropyl)-4-(2-cyclopropoxyphenyl)pyridine 1-oxide] was run?
**A.** 126 to 1000 nM

**Q.** For `O=S(=O)(Nc1nccs1)c1ccc(Cl)c(COC2(c3cnccc3-c3ccccc3OC3CC3)CC2)c1` [Compound I-770, 4-chloro-3-((1-(4-(2-cyclopropoxyphenyl)pyridin-3-yl)cyclopropoxy)methyl)-N-(thiazol-2-yl)benzenesulfonamide], which EC50 is on record?
**A.** < 100 nM

**Q.** How did the EC50 turn out when `Cc1cc(COC2(c3cnccc3-c3ccccc3OC3CC3)CC2)c(Cl)cc1CCCCC(=O)N(C)C[C@H](O)[C@@H](O)[C@H](O)[C@H](O)CO` [Compound I-146, 5-[5-chloro-4-({1-[4-(2-cyclopropoxyphenyl)pyridin-3-yl]cyclopropoxy}methyl)-2-methylphenyl]-N-methyl-N-[(2S,3R,4R,5R)-2,3,4,5,6-pentahydroxyhexyl]pentanamide] was run?
**A.** < 100 nM

**Q.** Which EC50 does the source give for `O=C(NCCCCSc1ccc(Cl)c(COC2(c3cnccc3-c3ccccc3OC3CC3)CC2)c1)N[C@H]1CC[C@@H](NC(=O)NC[C@H](O)[C@@H](O)[C@H](O)[C@H](O)CO)CC1` [Compound I-635, 1-(4-{[4-chloro-3-({1-[4-(2-cyclopropoxyphenyl)pyridin-3-yl]cyclopropoxy}methyl)phenyl]sulfanyl}butyl)-3-[(1s,4s)-4-({[(2S,3R,4R,5R)-2,3,4,5,6-pentahydroxyhexyl]carbamoyl}amino)cyclohexyl]urea] here?
**A.** < 100 nM

**Q.** Which EC50 does the source give for `CC(CCCN(CCOCCO)C(=O)[C@@H](O)[C@@H](O)[C@H](O)[C@@H](O)CO)c1ccc(Cl)c(CNC2(c3cnccc3-c3ccccc3OC3CC3)CC2)c1` (stereo partly drawn) [Compound I-286, (2S,3S,4R,5S)-N-(4-{4-chloro-3-[({1-[4-(2-cyclopropoxyphenyl)pyridin-3-yl]cyclopropyl}amino)methyl]phenyl}pentyl)-2,3,4,5,6-pentahydroxy-N-[2-(2-hydroxyethoxy)ethyl]hexanamide] here?
**A.** < 100 nM

**Q.** `CS(=O)(=O)CCN(C[C@H](O)[C@@H](O)[C@H](O)[C@H](O)CO)C(=O)CCCCc1cc(Cl)c(COC2(c3cnccc3-c3ccccc3OC3CC3)CC2)cc1Cl` [Compound I-130, 5-[2,5-dichloro-4-({1-[4-(2-cyclopropoxyphenyl)pyridin-3-yl]cyclopropoxy}methyl)phenyl]-N-(2-methanesulfonylethyl)-N-[(2S,3R,4R,5R)-2,3,4,5,6-pentahydroxyhexyl]pentanamide] was tested. Which EC50 did it give?
**A.** < 100 nM

**Q.** For `O=C(NC[C@H](O)[C@@H](O)[C@H](O)[C@H](O)CO)[C@H]1CC[C@H](CNS(=O)(=O)c2ccc(Cl)c(COC3(c4cnccc4-c4ccccc4OC4CC4)CC3)c2)CC1` [Compound I-436, (1r,4r)-4-[4-chloro-3-({1-[4-(2-cyclopropoxyphenyl)pyridin-3-yl]cyclopropoxy}methyl)benzenesulfonamidomethyl]-N-[(2S,3R,4R,5R)-2,3,4,5,6-pentahydroxyhexyl]cyclohexane-1-carboxamide], which EC50 is on record?
**A.** < 100 nM

**Q.** For `CN(CCCCNC(=O)N[C@@H](CO)[C@@H](O)[C@H](O)[C@H](O)CO)S(=O)(=O)c1ccc(C(F)(F)F)c(CNC2(c3cnccc3-c3ccccc3OC3CC3)CC2)c1` [Compound I-470, 1-(4-{N-methyl3-[({1-[4-(2-cyclopropoxyphenyl)pyridin-3-yl]cyclopropyl}amino)methyl]-4-(trifluoromethyl)benzenesulfonamido}butyl)-3-[(2S,3R,4S,5R)-1,3,4,5,6-pentahydroxyhexan-2-yl]urea], which EC50 is on record?
**A.** 126 to 1000 nM

**Q.** Which EC50 does the source give for `Cc1ccc(SCCCC(=O)NC[C@H](O)[C@@H](O)[C@H](O)[C@H](O)CO)cc1COC1(c2cnccc2-c2ccccc2OC2CC2)CC1` [Compound I-651, 4-{[3-({1-[4-(2-cyclopropoxyphenyl)pyridin-3-yl]cyclopropoxy}methyl)-4-methylphenyl]sulfanyl}-N-[(2S,3R,4R,5R)-2,3,4,5,6-pentahydroxyhexyl]butanamide] here?
**A.** < 100 nM

**Q.** Which EC50 does the source give for `CNC(=O)CN(C[C@H](O)[C@@H](O)[C@H](O)[C@H](O)CO)C(=O)CCCSc1ccc(Cl)c(COC2(c3cnccc3-c3ccccc3OC3CC3)CC2)c1` [Compound I-670, 4-{[4-chloro-3-({1-[4-(2-cyclopropoxyphenyl)pyridin-3-yl]cyclopropoxy}methyl)phenyl]sulfanyl}-N-[(methylcarbamoyl)methyl]-N-[(2S,3R,4R,5R)-2,3,4,5,6-pentahydroxyhexyl]butanamide] here?
**A.** 126 to 1000 nM

**Q.** For `CS(=O)(=O)CCCN(CCCSc1ccc(Cl)c(CNC2(c3cnccc3-c3ccccc3OC3CC3)CC2)c1)C(=O)[C@@H](O)[C@@H](O)[C@H](O)[C@@H](O)CO` [Compound I-525, (2S,3S,4R,5S)-N-[3-({4-chloro-3-[({1-[4-(2-cyclopropoxyphenyl)pyridin-3-yl]cyclopropyl}amino)methyl]phenyl}sulfanyl)propyl]-2,3,4,5,6-pentahydroxy-N-(3-methanesulfonylpropyl) hexanamide], which EC50 is on record?
**A.** 126 to 1000 nM

**Q.** `CCN(C[C@H](O)[C@@H](O)[C@H](O)[C@H](O)CO)C(=O)CCCSc1ccc(Cl)c(COC2(c3cnccc3-c3ccccc3OC3CC3)CC2)c1` [Compound I-659, 4-{[4-chloro-3-({1-[4-(2-cyclopropoxyphenyl)pyridin-3-yl]cyclopropoxy}methyl)phenyl]sulfanyl}-N-ethyl-N-[(2S,3R,4R,5R)-2,3,4,5,6-pentahydroxyhexyl]butanamide] was tested. Which EC50 did it give?
**A.** < 100 nM

**Q.** Which EC50 does the source give for `CS(=O)(=O)NCCCN(CCCCSc1ccc(Cl)c(COC2(c3cnccc3-c3ccccc3OC3CC3)CC2)c1)C(=O)[C@@H](O)[C@@H](O)[C@H](O)[C@@H](O)CO` [Compound I-577, (2S,3S,4R,5S)-N-(4-{[4-chloro-3-({1-[4-(2-cyclopropoxyphenyl)pyridin-3-yl]cyclopropoxy}methyl)phenyl]sulfanyl}butyl)-2,3,4,5,6-pentahydroxy-N-(3-methanesulfonamidopropyl) hexanamide] here?
**A.** < 100 nM

**Q.** For `C[C@@H](CCCCNC(=O)N[C@@H](CO)[C@@H](O)[C@H](O)[C@H](O)CO)c1ccc(Cl)c(COC2(c3cnccc3-c3ccccc3OC3CC3)CC2)c1` [Compound I-263], which EC50 is on record?
**A.** < 100 nM

**Q.** `CCOC(=O)NCCN(CCCCSc1ccc(Cl)c(COC2(c3cnccc3-c3ccccc3OC3CC3)CC2)c1)C(=O)[C@@H](O)[C@@H](O)[C@H](O)[C@@H](O)CO` [Compound I-576, ethyl N-{2-[(2S,3S,4R,5S)-N-(4-{[4-chloro-3-({1-[4-(2-cyclopropoxyphenyl)pyridin-3-yl]cyclopropoxy}methyl)phenyl]sulfanyl}butyl)-2,3,4,5,6-pentahydroxyhexanamido]ethyl}carbamate] was tested. Which EC50 did it give?
**A.** < 100 nM

**Q.** With `CCN(CCOCCNC(=O)NC[C@H](O)[C@@H](O)[C@H](O)[C@H](O)CO)S(=O)(=O)c1ccc(Cl)c(COC2(c3cnccc3-c3ccccc3OC3CC3)CC2)c1` [Compound I-411, 1-(2-{2-[N-ethyl4-chloro-3-({1-[4-(2-cyclopropoxyphenyl)pyridin-3-yl]cyclopropoxy}methyl)benzenesulfonamido]ethoxy}ethyl)-3-[(2S,3R,4R,5R)-2,3,4,5,6-pentahydroxyhexyl]urea] as the compound, how does the EC50 read?
**A.** < 100 nM

**Q.** How did the EC50 turn out when `CC(C)Oc1ccccc1-c1ccncc1C1(NCc2cc(Cl)ccc2Cl)CC1` [Compound I-2, N-[(2,5-dichlorophenyl)methyl]-1-{4-[2-(propan-2-yloxy)phenyl]pyridin-3-yl}cyclopropan-1-amine] was run?
**A.** < 100 nM
